In patent US20070117743A1, “New antitumoral compounds” (priority 2003, published 2007):
Read-outs that look alike come from different tables or passages of the source.

Key:
Type in all cases: cell-based, human
A-549 = experiment: SRB colorimetric assay of cell growth and viability, A-549; settings: 48 hours exposure; for GI50: read-out: GI50 A-549; for CC50: read-out: LC50 A-549
IGROV-1 = experiment: SRB colorimetric assay of cell growth and viability, IGROV-1; settings: 48 hours exposure
LoVo = experiment: SRB colorimetric assay of cell growth and viability, LoVo; settings: 48 hours exposure; for CC50: read-out: LC50 LOVO
HT-29 = experiment: SRB colorimetric assay of cell growth and viability, HT-29; settings: 48 hours exposure; for GI50: read-out: GI50 HT-29; for CC50: read-out: LC50 HT-29
HeLa-APL = experiment: SRB colorimetric assay of cell growth and viability, HeLa-APL; settings: 48 hours exposure; for CC50: read-out: LC50 HELA-APL
K-562 = experiment: SRB colorimetric assay of cell growth and viability, K-562; settings: 48 hours exposure; for CC50: read-out: LC50 K-562
DU-145 = experiment: SRB colorimetric assay of cell growth and viability, DU-145; settings: 48 hours exposure
SK-MEL-28 = experiment: SRB colorimetric assay of cell growth and viability, SK-MEL-28; settings: 48 hours exposure; for CC50: read-out: LC50 MEL-28
LoVo-Dox = experiment: SRB colorimetric assay of cell growth and viability, LoVo-Dox; settings: 48 hours exposure; for CC50: read-out: LC50 LOVO-DOX
Procedure, shortened: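 Optical density at 490 nm of solubilized SRB, from triplicate wells, yields GI, TGI and LC values. Before staining, cells are fixed for 60 minutes at 4° C in cold TCA after a 48-hour exposure.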

PANC-1 = experiment: SRB colorimetric assay of cell growth and viability, PANC-1; settings: 48 hours exposure; for CC50: read-out: LC50 PANC-1
IGROV-ET = experiment: SRB colorimetric assay of cell growth and viability, IGROV-ET; settings: 48 hours exposure; for CC50: read-out: LC50 IGROV-ET
SK-BR-3 = experiment: SRB colorimetric assay of cell growth and viability, SK-BR-3; settings: 48 hours exposure
Source text: The finality of this assay is to interrupt the growth of a “in vitro” tumor cell culture by means a continued exhibition of the cells to the sample to be testing.
This form of the assay employs 96 well cell culture microplates of 9 mm diameter (Faircloth, 1988; Mosmann, 1983). Most of the cell lines are obtained from American Type Culture Collection (ATCC) derived from different human cancer types.
Cells are maintained in RPMI 1640 10% FBS, supplemented with 0.1 g/l penicillin and 0.1 g/l streptomycin sulfate and then incubated at 37° C., 5% CO2 and 98% humidity. For the experiments, cells were harvested from subconfluent cultures using trypsin and resuspended in fresh medium before plating.
Cells are seeded in 96 well microtiter plates, at 5×10^3 cells per well in aliquots of 195 μL medium, and they are allowed to attach to the plate surface by growing in drug free medium for 18 hours. Afterward, samples are added in aliquots of 5 μL in a ranging from 10 to 10^−8 μg/mL, dissolved in DMSO:EtOH:PBS (0.5:0.5:99). After 48 hours exposure, the antitumor effect are measured by the SRB methodology: cells are fixed by adding 50 μL of cold 50% (wt/vol) trichloroacetic acid (TCA) and incubating for 60 minutes at 4° C. Plates are washed with deionized water and dried. One hundred μL of SRB solution (0.4% wt/vol in 1% acetic acid) is added to each microtiter well and incubated for 10 minutes at room temperature. Unbound SRB is removed by washing with 1% acetic acid. Plates are air dried and bound stain is solubilized with Tris buffer. Optical densities are read on a automated spectrophotometric plate reader at a single wavelength of 490 nm.
The values for mean+/− SD of data from triplicate wells are calculated. Some parameters for cellular responses can be calculated: GI=growth inhibition, TGI=total growth inhibition (cytostatic effect) and LC=cell killing (cytotoxic effect).

HeLa = experiment: SRB colorimetric assay of cell growth and viability, HeLa; settings: 48 hours exposure; for CC50: read-out: LC50 HELA

C/C=C1\NC(=O)[C@H](Cc2ccccc2)N(C)C(=O)[C@@H](C(C)C)NC(=O)[C@@H]([C@@H](C)CC)NC(=O)[C@H](NC(=O)[C@H](NC(=O)[C@H](CCCN)NC(=O)[C@H]2CCCN2C(=O)[C@H](NC(=O)[C@@H](NC(=O)[C@@H](NC(=O)[C@H](NC(=O)CC[C@@H](C)CC)C(C)C)[C@@H](C)O)C(C)C)C(C)C)[C@@H](C)CC)[C@@H](C)OC(=O)[C@H](C(C)C)NC1=O [Compound 80, [NMePhe^3, (4S)-MeHex^14]-KF]
TGI A-549 (A-549; SRB): 2.03E−06 Molar
GI50 (A-549; SRB): 1130 nM
CC50 (A-549; SRB): 3670 nM
GI50 (IGROV-1; SRB): 416 nM
LC50 (concentration causing 50% net cell killing) (IGROV-1; SRB): 2820 nM
TGI IGROV (IGROV-1; SRB): 1.17E−06 Molar
GI50 (LoVo; SRB): 125 nM
TGI LOVO (LoVo; SRB): 2.61E−07 Molar
CC50 (LoVo; SRB): 545 nM
TGI HT-29 (HT-29; SRB): 4.03E−07 Molar
GI50 (HT-29; SRB): 178 nM
CC50 (HT-29; SRB): 1200 nM
GI50 (HeLa-APL; SRB): 845 nM
TGI HELA-APL (HeLa-APL; SRB): 1.64E−06 Molar
CC50 (HeLa-APL; SRB): 3190 nM
GI50 (K-562; SRB): 744 nM
TGI K-562 (K-562; SRB): 1.62E−06 Molar
CC50 (K-562; SRB): 3540 nM
GI50 (DU-145; SRB): 1070 nM
LC50 (concentration causing 50% net cell kill) (DU-145; SRB): 3620 nM
TGI DU-145 (DU-145; SRB): 1.97E−06 Molar
GI50 (SK-MEL-28; SRB): 1320 nM
TGI MEL-28 (SK-MEL-28; SRB): 2.25E−06 Molar
CC50 (SK-MEL-28; SRB): 3840 nM
GI50 (LoVo-Dox; SRB): 120 nM
TGI LOVO-DOX (LoVo-Dox; SRB): 2.08E−07 Molar
CC50 (LoVo-Dox; SRB): 359 nM
GI50 (PANC-1; SRB): 1900 nM
TGI PANC-1 (PANC-1; SRB): 3.82E−06 Molar
CC50 (PANC-1; SRB): 6.7 µM
GI50 (IGROV-ET; SRB): 583 nM
TGI IGROV-ET (IGROV-ET; SRB): 1.39E−06 Molar
CC50 (IGROV-ET; SRB): 3040 nM
GI50 (SK-BR-3; SRB): 123 nM
LC50 (SK-BR-3; SRB): 1430 nM
TGI SK-BR-3 (SK-BR-3; SRB): 3.29E−07 Molar
GI50 (HeLa; SRB): 392 nM
TGI HELA (HeLa; SRB): 1.19E−06 Molar
CC50 (HeLa; SRB): 2510 nM

C/C=C1\NC(=O)[C@H](Cc2cccc(Cl)c2)NC(=O)[C@@H](C(C)C)NC(=O)[C@@H]([C@@H](C)CC)NC(=O)[C@H](NC(=O)[C@H](NC(=O)[C@H](CCCN)NC(=O)[C@H]2CCCN2C(=O)[C@H](NC(=O)[C@@H](NC(=O)[C@@H](NC(=O)[C@H](NC(=O)CCCC(C)C)C(C)C)[C@@H](C)O)C(C)C)C(C)C)[C@@H](C)CC)[C@@H](C)OC(=O)[C@H](C(C)C)NC1=O [Compound 82, [Phe(3-Cl)^3]-KF]
TGI A-549 (A-549; A-549): 6.03E−07 Molar
GI50 (A-549; A-549): 291 nM
CC50 (A-549; A-549): 1490 nM
GI50 (IGROV-1; IGROV): 69.5 nM
LC50 (concentration causing 50% net cell killing) (IGROV-1; IGROV): 182 nM
TGI IGROV (IGROV-1; IGROV): 1.13E−07 Molar
GI50 (LoVo; LOVO): 40.6 nM
TGI LOVO (LoVo; LOVO): 8.73E−08 Molar
CC50 (LoVo; LOVO): 180 nM
TGI HT-29 (HT-29; HT-29): 1.19E−07 Molar
GI50 (HT-29; HT-29): 77.5 nM
CC50 (HT-29; HT-29): 187 nM
GI50 (HeLa-APL; HELA-APL): 192 nM
TGI HELA-APL (HeLa-APL; HELA-APL): 3.25E−07 Molar
CC50 (HeLa-APL; HELA-APL): 551 nM
GI50 (K-562; K-562): 658 nM
TGI K-562 (K-562; K-562): 1.02E−06 Molar
CC50 (K-562; K-562): 1590 nM
GI50 (DU-145; DU-145): 209 nM
LC50 (concentration causing 50% net cell kill) (DU-145; DU-145): 553 nM
TGI DU-145 (DU-145; DU-145): 3.40E−07 Molar
GI50 (SK-MEL-28; MEL-28): 297 nM
TGI MEL-28 (SK-MEL-28; MEL-28): 4.41E−07 Molar
CC50 (SK-MEL-28; MEL-28): 935 nM
GI50 (LoVo-Dox; LOVO-DOX): 45.3 nM
TGI LOVO-DOX (LoVo-Dox; LOVO-DOX): 9.10E−08 Molar
CC50 (LoVo-Dox; LOVO-DOX): 892 nM
GI50 (PANC-1; PANC-1): 965 nM
TGI PANC-1 (PANC-1; PANC-1): 1.84E−06 Molar
CC50 (PANC-1; PANC-1): 1.84 µM
GI50 (IGROV-ET; IGROV-ET): 110 nM
TGI IGROV-ET (IGROV-ET; IGROV-ET): 2.20E−07 Molar
CC50 (IGROV-ET; IGROV-ET): 576 nM
GI50 (SK-BR-3; SK-BR-3): 58.9 nM
LC50 (SK-BR-3; SK-BR-3): 184 nM
TGI SK-BR-3 (SK-BR-3; SK-BR-3): 1.04E−07 Molar
GI50 (HeLa; HELA): 127 nM
TGI HELA (HeLa; HELA): 2.75E−07 Molar
CC50 (HeLa; HELA): 521 nM
